Measurements from BindingDB's records for PubMed 34214508 (Roche Innovation Center Shanghai, 2021).

Assay: Inhibition of mouse TNF-alpha in mouse L929 cells incubated for 18 hrs by CellTitreGlo assay

IC50: 125 nM
SMILES: Cc1ccc(C)c(Cn2c(C(O)c3ccncc3)nc3ccc(-c4cnn(C)c4)cc32)c1 (stereo unspecified)
